Results as given in ChEMBL document CHEMBL5244218, “Quinolone derivatives and their activities against methicillin-resistant Staphylococcus aureus (MRSA)” (Eur J Med Chem, 2018).
In brackets after ≈: the same amount, converted by molar mass.

Test system: Staphylococcus aureus
Assay: Antimicrobial activity against methicillin-resistant Staphylococcus aureus incubated for 18 hrs by Alamar blue staining based analysis
Type: functional

Row | Structure (SMILES) | MIC [µg/mL]
1 | COc1cccc(O/N=C2/CCN(c3c(F)cc4c(=O)c(C(=O)O)cn(C5CC5)c4c3OC)CC2N)c1OC (stereo not given) | 0.008 (≈ 0.0148 µM)
2 | COc1c(N2CC/C(=N/Oc3ccc(F)cc3)C(N)C2)c(F)cc2c(=O)c(C(=O)O)cn(C3CC3)c12 (stereo not given) | 0.008 (≈ 0.016 µM)
3 | COc1cc(Br)ccc1O/N=C1/CCN(c2c(F)cc3c(=O)c(C(=O)O)cn(C4CC4)c3c2OC)CC1N (stereo not given) | 0.008 (≈ 0.0136 µM)
4 | CCc1ccc(O/N=C2/CCN(c3c(F)cc4c(=O)c(C(=O)O)cn(C5CC5)c4c3OC)CC2N)cc1CC (stereo not given) | 0.008 (≈ 0.0149 µM)
5 | COc1ccccc1O/N=C1/CCN(c2c(F)cc3c(=O)c(C(=O)O)cn(C4CC4)c3c2OC)CC1N (stereo not given) | 0.008 (≈ 0.0157 µM)

Test system: Staphylococcus aureus
Assay: Antimicrobial activity against methicillin-resistant Staphylococcus aureus incubated for 18 hrs by Agar dilution method
Type: functional

Row | Structure (SMILES) | MIC [µg/mL]
6 | COc1c(N2C[C@@H]3CCCN[C@@H]3C2)c(F)cc2c(=O)c(C(=O)O)cn(C3CC3)c12 [MOXIFLOXACIN] | 0.06 (≈ 0.149 µM)
7 | CC(=O)c1c(N2Cc3nn(C)c(N)c3C2)c(F)cc2c(=O)c(C(=O)O)cn(C3CC3)c12 | 0.125 (≈ 0.294 µM)
8 | CCn1cc(C(=O)O)c(=O)c2cc(F)c(N3Cc4nn(C)c(N)c4C3)c(F)c21 | 0.125 (≈ 0.321 µM)
9 | Nc1[nH]nc2c1CN(c1c(F)cc3c(=O)c(C(=O)O)cn(C4CC4)c3c1F)C2 | 0.125 (≈ 0.323 µM)
10 | Cn1nc2c(c1N)CN(c1nc3c(cc1F)c(=O)c(C(=O)O)cn3C1CC1)C2 | 0.125 (≈ 0.325 µM)
11 | CCn1cc(C(=O)O)c(=O)c2cc(F)c(N3Cc4n[nH]c(N)c4C3)c(F)c21 | 0.125 (≈ 0.333 µM)
12 | Nc1[nH]nc2c1CN(c1nc3c(cc1F)c(=O)c(C(=O)O)cn3-c1ccc(F)cc1F)C2 | 0.125 (≈ 0.283 µM)
13 | Cn1nc2c(c1N)CN(c1nc3c(cc1F)c(=O)c(C(=O)O)cn3-c1ccc(F)cc1F)C2 | 0.125 (≈ 0.274 µM)
14 | Nc1[nH]nc2c1CN(c1c(F)cc3c(=O)c(C(=O)O)cn(C4CC4)c3c1C(=O)C(F)F)C2 | 0.125 (≈ 0.279 µM)
15 | Cn1nc2c(c1N)CN(c1c(F)cc3c(=O)c(C(=O)O)cn(C4CC4)c3c1C(=O)C(F)F)C2 | 0.125 (≈ 0.271 µM)
16 | Cn1nc2c(c1N)CN(c1c(F)cc3c(=O)c(C(=O)O)cn(C4CC4)c3c1F)C2 | 0.125 (≈ 0.311 µM)
17 | CC(=O)c1c(N2Cc3n[nH]c(N)c3C2)c(F)cc2c(=O)c(C(=O)O)cn(C3CC3)c12 | 0.125 (≈ 0.304 µM)
18 | Nc1[nH]nc2c1CN(c1nc3c(cc1F)c(=O)c(C(=O)O)cn3C1CC1)C2 | 0.125 (≈ 0.338 µM)
19 | Nc1[nH]nc2c1CN(c1c(F)cc3c(=O)c(C(=O)O)cn(CCF)c3c1F)C2 | 0.125 (≈ 0.318 µM)
20 | Cn1nc2c(c1N)CN(c1c(F)cc3c(=O)c(C(=O)O)cn(CCF)c3c1F)C2 | 0.125 (≈ 0.307 µM)

Test system: Staphylococcus aureus
Assay: Antimicrobial activity against methicillin-resistant Staphylococcus aureus assessed as inhibition of microbial growth
Type: functional

Row | Structure (SMILES) | MIC [µg/mL]
21 | O=C(O)c1c[nH]c2cc(N3CCN([C@@H]4O[C@H](CO)[C@H](O)[C@H](O)[C@H]4O)CC3)c(F)cc2c1=O | 0.5
22 | O=C(O)c1c[nH]c2cc(N3CCN([C@@H]4O[C@H](CO)[C@@H](O)[C@H](O)[C@H]4O)CC3)c(F)cc2c1=O | 0.5
23 | COc1ccccc1C1=CN2c3c(c(=O)c(C(=O)O)cn3C3CC3)C=C(F)C2N=N1 (stereo not given) | 0.25
24 | Cc1ccc(C2=CN3c4c(c(=O)c(C(=O)O)cn4C4CC4)C=C(F)C3N=N2)cc1 (stereo not given) | 0.25
25 | Nc1cccc(C2=CN3c4c(c(=O)c(C(=O)O)cn4C4CC4)C=C(F)C3N=N2)c1 (stereo not given) | 0.25
26 | O=C(O)c1cn(C2CC2)c2c(c1=O)C=C(F)C1N=NC(c3cccc([N+](=O)[O-])c3)=CN21 (stereo not given) | 0.25
27 | COc1ccc(C2=CN3c4c(c(=O)c(C(=O)O)cn4C4CC4)C=C(F)C3N=N2)cc1 (stereo not given) | 0.25
28 | O=C(O)c1cn(C2CC2)c2c(c1=O)C=C(F)C1N=NC(c3ccc(Cl)cc3)=CN21 (stereo not given) | 0.25
29 | O=C(O)c1cn(C2CC2)c2c(c1=O)C=C(F)C1N=NC(c3ccc(Br)cc3)=CN21 (stereo not given) | 0.25
30 | O=C(O)c1cn(C2CC2)c2c(c1=O)C=C(F)C1N=NC(c3cccc(Cl)c3)=CN21 (stereo not given) | 0.25
31 | COc1ccc(C2=CN3c4c(c(=O)c(C(=O)O)cn4C4CC4)C=C(F)C3N=N2)cc1OC (stereo not given) | 0.25
32 | O=C(O)c1cn(C2CC2)c2c(c1=O)C=C(F)C1N=NC(c3ccc(O)cc3)=CN21 (stereo not given) | 0.25
33 | Nc1ccc(C2=CN3c4c(c(=O)c(C(=O)O)cn4C4CC4)C=C(F)C3N=N2)cc1 (stereo not given) | 0.25
34 | O=C(O)c1cn(C2CC2)c2c(c1=O)C=C(F)C1N=NC(c3ccc([N+](=O)[O-])cc3)=CN21 (stereo not given) | 0.25
35 | Cc1ccccc1C1=CN2c3c(c(=O)c(C(=O)O)cn3C3CC3)C=C(F)C2N=N1 (stereo not given) | 0.25
